Data reported in publication PMC11012124, “Synthesis of Novel Triazine-Based Chalcones and 8,9-dihydro-7H-pyrimido[4,5-b][1,4]diazepines as Potential Leads in the Search of Anticancer, Antibacterial and Antifungal Agents” (International Journal of Molecular Sciences, 2024).

What was measured:
SN12C = assay: cells; conditions: Homo sapiens, 48 h; for CC50: read-out: LC50
SR = assay: cells; conditions: Homo sapiens, 48 h; for CC50: read-out: LC50
HL-60(TB) = assay: cells; conditions: Homo sapiens, HL-60, 48 h; for CC50: read-out: LC50
SK-MEL-2 = assay: cells; conditions: Homo sapiens, SK-MEL-2, 48 h; for CC50: read-out: LC50
KM12 = assay: cells; conditions: Homo sapiens, KM12, 48 h; for CC50: read-out: LC50
SK-MEL-28 = assay: cells; conditions: Homo sapiens, SK-MEL-28, 48 h; for CC50: read-out: LC50
SW-620 = assay: cells; conditions: Homo sapiens, SW-620, 48 h; for CC50: read-out: LC50
CAKI-1 = assay: cells; conditions: Homo sapiens, CAKI-1, 48 h; for CC50: read-out: LC50
OVCAR-4 = assay: cells; conditions: Homo sapiens, OVCAR-4, 48 h; for CC50: read-out: LC50
OVCAR-5 = assay: cells; conditions: Homo sapiens, OVCAR-5, 48 h; for CC50: read-out: LC50
IGROV1 = assay: cells; conditions: Homo sapiens, IGROV-1, 48 h; for CC50: read-out: LC50
K-562 = assay: cells; conditions: Homo sapiens, K562, 48 h; for GI50: K-562, 48 h; for CC50: read-out: LC50
DU-145 = assay: cells; conditions: Homo sapiens, DU-145, 48 h; for CC50: read-out: LC50
MDA-MB-435 = assay: cells; conditions: Homo sapiens, MDA-MB-435, 48 h; for CC50: read-out: LC50
TK-10 = assay: cells; conditions: Homo sapiens, TK-10, 48 h; for CC50: read-out: LC50
MALME-3M = assay: cells; conditions: Homo sapiens, 48 h; for CC50: read-out: LC50
[1] = Hemolytic activity, spectrophotometric; type: cell-based, human; conditions: human, human red blood cells (huRBC), 5% hematocrit, 200 μg/mL, 37 °C
SK-OV-3 = assay: cells; conditions: Homo sapiens, SK-OV-3, 48 h; for CC50: read-out: LC50
MCF7 = assay: cells; conditions: Homo sapiens, MCF7, 48 h; for CC50: read-out: LC50
NCI/ADR-RES = assay: cells; conditions: Homo sapiens, 48 h
OVCAR-8 = assay: cells; conditions: Homo sapiens, OVCAR-8, 48 h; for CC50: read-out: LC50
NCI-H522 = assay: cells; conditions: Homo sapiens, NCI-H522, 48 h; for CC50: read-out: LC50
T-47D = assay: cells; conditions: Homo sapiens, T47D, 48 h; for CC50: read-out: LC50
CCRF-CEM = assay: cells; conditions: Homo sapiens, 48 h; for CC50: read-out: LC50
NCI-H460 = assay: cells; conditions: Homo sapiens, NCI-H460, 48 h; for CC50: read-out: LC50

Structure (SMILES): Nc1nc(N)c2c(n1)NC(c1ccc(C(F)(F)F)cc1)CC(c1ccc(Nc3nc(NCCO)nc(Nc4ccc(Cl)cc4)n3)cc1)=N2 (centres unmarked) [33g]
- GI50 (SN12C): 1.76 µM
- CC50 (SN12C): 6.35 µM
- GI50 (SR): 1.46 µM
- CC50 (SR): > 100 µM
- GI50 (HL-60(TB)): 1.28 µM
- CC50 (HL-60(TB)): > 100 µM
- GI50 (SK-MEL-2): 1.67 µM
- CC50 (SK-MEL-2): 5.64 µM
- GI50 (KM12): 1.37 µM
- CC50 (KM12): 6.05 µM
- GI50 (SK-MEL-28): 1.53 µM
- CC50 (SK-MEL-28): 5.37 µM
- GI50 (SW-620): 1.6 µM
- CC50 (SW-620): 7.04 µM
- GI50 (CAKI-1): 1.45 µM
- CC50 (CAKI-1): 5.61 µM
- GI50 (OVCAR-4): 2.23 µM
- CC50 (OVCAR-4): > 100 µM
- GI50 (OVCAR-5): 1.6 µM
- CC50 (OVCAR-5): 5.64 µM
- GI50 (IGROV1): 1370 nM
- GI50 (K-562): 0.642 µM
- CC50 (K-562): > 100 µM
- GI50 (DU-145): 1.51 µM
- CC50 (DU-145): 5.33 µM
- GI50 (MDA-MB-435): 1.4 µM
- CC50 (MDA-MB-435): 5.3 µM
- GI50 (TK-10): 1.78 µM
- CC50 (TK-10): 5.63 µM
- GI50 (MALME-3M): 1.74 µM
- hemolysis at 24 h, 200 µg/mL [1]: 22%
- GI50 (SK-OV-3): 1.83 µM
- CC50 (SK-OV-3): 6.52 µM
- GI50 (MCF7): 1260 nM
- GI50 (NCI/ADR-RES): 1950 nM
- GI50 (OVCAR-8): 1.5 µM
- CC50 (OVCAR-8): 5.75 µM
- GI50 (NCI-H522): 1.34 µM
- CC50 (NCI-H522): 5.54 µM
- GI50 (T-47D): 1.55 µM
- CC50 (T-47D): 8.75 µM
- GI50 (CCRF-CEM): 1.23 µM
- CC50 (CCRF-CEM): > 100 µM
- GI50 (NCI-H460): 1.96 µM
- CC50 (NCI-H460): 8.23 µM

Structure (SMILES): CN(C)c1nc(NCCNS(=O)(=O)c2ccc(C(=O)/C=C/c3ccc(F)cc3)cc2)nc(N2CCOCC2)n1 [23f]
- GI50 (SN12C): 12 µM
- CC50 (SN12C): 50 µM
- GI50 (SR): 3.45 µM
- CC50 (SR): > 100 µM
- GI50 (HL-60(TB)): 14.7 µM
- CC50 (HL-60(TB)): > 100 µM
- GI50 (SK-MEL-2): 13.7 µM
- CC50 (SK-MEL-2): 52.7 µM
- GI50 (KM12): 13.4 µM
- CC50 (KM12): 70.3 µM
- GI50 (SK-MEL-28): 14.9 µM
- CC50 (SK-MEL-28): 53.4 µM
- GI50 (SW-620): 3.38 µM
- CC50 (SW-620): 40.8 µM
- GI50 (CAKI-1): 9.5 µM
- CC50 (CAKI-1): 48.6 µM
- GI50 (OVCAR-4): 11.9 µM
- CC50 (OVCAR-4): 51.1 µM
- GI50 (OVCAR-5): 13.6 µM
- CC50 (OVCAR-5): 52.6 µM
- GI50 (IGROV1): 2270 nM
- CC50 (IGROV1): 25.4 µM
- GI50 (K-562): 3.7 µM
- CC50 (K-562): > 100 µM
- GI50 (DU-145): 14.4 µM
- CC50 (DU-145): 53.8 µM
- GI50 (MDA-MB-435): 11.6 µM
- CC50 (MDA-MB-435): 51.9 µM
- GI50 (TK-10): 15.3 µM
- CC50 (TK-10): 53.8 µM
- GI50 (MALME-3M): 14.6 µM
- CC50 (MALME-3M): 54.4 µM
- GI50 (SK-OV-3): 13.8 µM
- CC50 (SK-OV-3): 55.5 µM
- GI50 (MCF7): 2990 nM
- CC50 (MCF7): 46.7 µM
- GI50 (OVCAR-8): 14.7 µM
- CC50 (OVCAR-8): 54 µM
- GI50 (NCI-H522): 13.3 µM
- CC50 (NCI-H522): 53.2 µM
- GI50 (T-47D): 11.9 µM
- CC50 (T-47D): 94.2 µM
- GI50 (CCRF-CEM): 6.58 µM
- CC50 (CCRF-CEM): > 100 µM
- GI50 (NCI-H460): 15.7 µM
- CC50 (NCI-H460): 69.4 µM

Structure (SMILES): CN(C)c1nc(NCCNS(=O)(=O)c2ccc(C(=O)/C=C/c3ccc(C(F)(F)F)cc3)cc2)nc(N2CCOCC2)n1 [23g]
- GI50 (SN12C): 12.5 µM
- CC50 (SN12C): 50 µM
- GI50 (SR): 6.31 µM
- CC50 (SR): > 100 µM
- GI50 (HL-60(TB)): 5.12 µM
- CC50 (HL-60(TB)): > 100 µM
- GI50 (SK-MEL-2): 16.3 µM
- CC50 (SK-MEL-2): 56.7 µM
- GI50 (KM12): 8.95 µM
- CC50 (KM12): 68.3 µM
- GI50 (SK-MEL-28): 14.4 µM
- CC50 (SK-MEL-28): 52.6 µM
- GI50 (SW-620): 3.3 µM
- CC50 (SW-620): 36.5 µM
- GI50 (CAKI-1): 11.4 µM
- CC50 (CAKI-1): 51.7 µM
- GI50 (OVCAR-4): 14.8 µM
- CC50 (OVCAR-4): 56.5 µM
- GI50 (OVCAR-5): 14.5 µM
- CC50 (OVCAR-5): 53 µM
- GI50 (IGROV1): 1770 nM
- CC50 (IGROV1): 6.97 µM
- GI50 (K-562): 3.21 µM
- CC50 (K-562): > 100 µM
- GI50 (DU-145): 15.4 µM
- CC50 (DU-145): 54.5 µM
- GI50 (MDA-MB-435): 10.3 µM
- CC50 (MDA-MB-435): 51.1 µM
- GI50 (TK-10): 15.5 µM
- CC50 (TK-10): 56 µM
- GI50 (MALME-3M): 14.4 µM
- CC50 (MALME-3M): 53 µM
- GI50 (SK-OV-3): 14.7 µM
- CC50 (SK-OV-3): 59 µM
- GI50 (MCF7): 1680 nM
- CC50 (MCF7): 6.63 µM
- GI50 (OVCAR-8): 14.4 µM
- CC50 (OVCAR-8): 54.9 µM
- GI50 (NCI-H522): 15.2 µM
- CC50 (NCI-H522): 58.2 µM
- GI50 (T-47D): 5.5 µM
- CC50 (T-47D): > 100 µM
- GI50 (CCRF-CEM): 3.2 µM
- CC50 (CCRF-CEM): > 100 µM
- GI50 (NCI-H460): 16.1 µM
- CC50 (NCI-H460): 65.6 µM
